# Source: US20240182873A1, “PRENYLTRANSFERASE AND A […], TISSUE, AND ORGANISM COMPRISING SAME” (YEDA RESEARCH AND DEVELOPMENT CO. LTD., priority 2021, published 2024)
# Experiments:
# [1] = system: Helichrysum umbraculigerum HuPTx (SEQ ID NO: 7), N-terminal plastid targeting sequence removed; assay: Steady state kinetic analysis of HuPTx with olivetolic acid and GPP (yeast microsomes, CBGA production); type: biochemical; details: varying olivetolic acid (0.5 μM-1.5 mM), constant GPP (1 mM), pH 8.5, 30° C., 15 min, n=3
# Method: (§1) FIG. 4 includes graphs showing steady state kinetic analysis of Helichrysum umbraculigerum PT1 (HuPT1; SEQ ID NO: 1), HuPT3 (SEQ ID NO: 3) and HuPTx (SEQ ID NO: 7) with olivetolic acid and GPP. The Michaelis-Menten Km value of each enzyme was calculated using varying olivetolic acid (0.5 μM-1.5 mM) and constant GPP (1 mM) concentrations (n=3 technically independent samples; measurements were plotted individually).
# (§2) HuPT1 (SEQ ID NO: 1), HuPT2 (SEQ ID NO: 2), HuPT3 (SEQ ID NO: 3), HuPTx (SEQ ID NO: 7) genes from H. umbraculigerum and GOT4 gene from Cannabis sativa were separately cloned into pESC-HIS vector. Microsomal preparations from yeast cells transformed with pESC-HIS vectors were performed as described by Jozwiak et al. (2020). PT enzymatic assay was carried out as described previously for CsGOT4 (Luo et al., 2019).
# (§3) Microsomes (2 μl) were dissolved in reaction buffer (50 mM Tris-HCl, 10 mM MgCl2, pH 8.5) and substrate was added [0.5 μM-1.5 mM μM olivetolic acid (Cayman Chemicals), 1 mM geranyl pyrophosphate (GPP, Sigma Aldrich)] to a total volume of 50 μl. Samples were incubated for 15 min at 30° C. Samples were extracted with 100 μl […] followed by vortexing and centrifugation. The organic layer was filtered and analyzed via UPLC-qTOF and Triple Quad (TQ) instruments. […]
# [2] = system: Helichrysum umbraculigerum PT1 (HuPT1; SEQ ID NO: 1), N-terminal plastid targeting sequence removed; assay: Steady state kinetic analysis of HuPT1 with olivetolic acid and GPP (yeast microsomes, CBGA production); type: biochemical; details: varying olivetolic acid (0.5 μM-1.5 mM), constant GPP (1 mM), pH 8.5, 30° C., 15 min, n=3
# Method: as §1, §2, §3
# [3] = system: Cannabis sativa geranylpyrophosphate:olivetolate geranyltransferase 4 (CsGOT4); details: Luo et al., 2019; cited from earlier work
# [4] = system: Helichrysum umbraculigerum HuPT3 (SEQ ID NO: 3), N-terminal plastid targeting sequence removed; assay: Steady state kinetic analysis of HuPT3 with olivetolic acid and GPP (yeast microsomes, CBGA production); type: biochemical; details: varying olivetolic acid (0.5 μM-1.5 mM), constant GPP (1 mM), pH 8.5, 30° C., 15 min, n=3
# Method: as §1, §2, §3
# [5] = In vitro enzymatic assay with PTs: CBGA production by yeast microsomal fractions; type: biochemical; details: purified yeast microsomal fraction expressing the PT; OA and GPP as substrates; LC-MS
# Source text: FIG. 2 includes a graph showing in vitro production of cannabigerolic acid (CBGA). Purified microsomal fraction from yeast cells expressing prenyltransferases (PTs) were used in enzyme assay containing olivetolic acid (OA) and geranylpyrophosphate (GPP). Cannabis sativa geranylpyrophosphate:olivetolate geranyltransferase 4 (CsGOT4) enzyme assay was used as positive control in experiment. Extracted ion chromatograms (EICs) are shown. LC-MS was used for assay products analysis. Standard—STD; Negative control—Empty vector.
# as §2
# The inventors profiled six tissues (young leaf, old leaf, florets and receptacles of flowers, stems, and roots) from H. umbraculigerum, using UPLC-qTOF, and identified CBGA in all the tissues, excluding roots (FIG. 1). CBGA is the known central precursor to Δ^9-tetrahydrocannabinolic acid (THCA), cannabidiolic acid (CBDA) and several other cannabinoids. It is produced from olivetolic acid (OA) and geranyl pyrophosphate (GPP) by an enzymatic reaction catalyzed by geranylpyrophosphate:olivetolate geranyltransferase 4 (GOT4). To identify genes in H. umbraculigerum associated with GOT4 like activity, the inventors searched for candidate prenyltransferase genes in Helichrysum transcriptome. Four prenyltransferase like genes, namely, HuPT1 (SEQ ID NO: 1), HuPT2 (SEQ ID NO: 2), HuPT3 (SEQ ID NO: 3) and HuPTx (SEQ ID NO: 7) were selected for further characterization based on their differential expression profile in leaves compared to other tissues. All these PTs shared less than 40% homology with CsGOT4 that is known to partake in cannabinoid biosynthesis. […]
Molecule,Km [1] [µM],Km [2] [µM],Km [3] [µM],Km [4] [µM],production of CBGA (PT activity) [5]
CCCCCc1cc(O)cc(O)c1C(=O)O [olivetolic acid],2 ± 0.8,19 ± 6.3,6.7 ± 0.3,110 ± 44.3,–
"HuPT3: Prenyltransferase from Helichrysum umbraculigerum, gene SEQ ID NO: 3, expressed in yeast microsomes (protein) MKSLIIGSFSNKVSCYSPSLPDSSSSLIPTGCYHVSLRTFQRNRAIQAQSSLVRCNIGKFNETLLLSRKRSTKHVACAVSEQPIEPDATNPQSSLPNALDAFYRFSRPHTVIGTALSIVSVSLLAVQKLSDFSPLFFIGVFEAIVAAFFMNIYIVGLNQLSDIEIDKVNKPYLPLASGEYSVQTGIIIVSSFAVMSFWLGWIVGSWPLFWALFISFLLGTAYSINIPMLRWKRFALVAAMCILAVRAIIVQVAFYLHIQTFVYGRLAVFPKPVIFATGFMSFFSVVIALFKDIPDIVGDKIFGIQSFTVRMGQKRVFWICILLLEIAYGVAILVGASSPFLWSRYITVLGHAILGLILWGRAKSTDLESKSAITSFYMFIWQLFYAEYLLIPLVR",–,–,–,–,clear production of CBGA
"HuPT1: Prenyltransferase from Helichrysum umbraculigerum, gene SEQ ID NO: 1, expressed in yeast microsomes (protein) MELSLSSSSSSSLPQLHTHPSSSSSSSHYIKKSPFFINKFNNHTKCKFHNSSALRTNFFYTTITKTSSSRFVLNKNPNQFSVKACSQVGSAGSDPALNKVADFKDAFWRFLRPHTIRGTALGSVSLVTRALLENPNLIRWSLLLKAFSGLVALICGNGYIVGINQIYDIGIDKVNKPYLPIAAGDLSVQSAWFLVLAFAMVGVIIVGMNFGPFITSLYSLGLFLGTIYSVPPLRMKRFPVVAFLIIATVRGFLLNFGVYYAVRAALGLTFQWSSAVAFITTFVTLFALVIAITKDLPDVEGDRKFQISTFATKLGVRNIALLGSGLLLINYIGSIVAALYMPQAFRSSLMIPLHTILASCLIYQAWILERANYTQEAIAGYYRFVWNLFYSEYIIFPFI",–,–,–,–,clear production of CBGA
"HuPTx: Prenyltransferase from Helichrysum umbraculigerum, gene SEQ ID NO: 7, expressed in yeast microsomes (protein) MASLAIGSLGSPSSRQCSSPVASSSSFAIGSQIASKFLRISKFDKTKNSPLTLQQKHINKSIDQSFFEPLPLHKINKDKFKLYATSTNNPQFDATHDLKTPEVSIINFVDALYRLIRPYTAVVTIVSVVAMSLLTVNSLSDFSPLFFIKVVQALIGGIFMQMYVSGFNQICDIELDKVNKQSLPLAAGELSMKTAIVIASLSAIMSLSIGWFVGSPPLLWCLVWWFIVGTAYSANVLPYLRWKRFPFTAAFCAMTSRALVLPIGYYLHMQNSIPGVSALLSRPILFAVAMLSAFSLSAMFFKDIPDIKGDRMHGIKSLAIKLGEKRVYWISISIIEIAYIAAAFIGATSPISWSKYVTIIGHLGMGLLLWVRARSVDPTNTVAVQSMYMFLIKLVYAEYGLISLVR",–,–,–,–,clear production of CBGA
